From BindingDB's records for doi:10.1021/jm00179a007 (1980)

Experiment: In vitro inhibitory potency was measured against phenylethanolamine N-methyl-transferase

| SMILES | IC50 |
| --- | --- |
| NCc1cccc(Cl)c1 [(3-chlorophenyl)methanamine] | 9 µM |
| CC(N)Cc1ccc(Cl)cc1 (configuration not stated) [para-chloroamphetamine] | 300 µM |
